# Laboratory results as given in patent US20100035926A1, “PYRAZOLE DERIVATIVES AS NON-STEROIDAL GLUCOCORTICOID RECEPTOR LIGANDS” (priority 2006, published 2010).
# Read-outs that look alike come from different tables or passages of the source.
# Columns and labels:
# glucocorticoid receptor = molecular target: T1, glucocorticoid receptor (Homo sapiens, UniProt P04150); assay: Glucocorticoid Receptor Binding Assay (fluorescence polarisation, displacement of Alexa 555 labelled dexamethasone derivative); conditions: at least once in this assay; read-out: glucocorticoid binding pIC50 (converted)
# T1 construct: a partially purified full length glucocorticoid receptor
# T1 sequence (P04150 1-777): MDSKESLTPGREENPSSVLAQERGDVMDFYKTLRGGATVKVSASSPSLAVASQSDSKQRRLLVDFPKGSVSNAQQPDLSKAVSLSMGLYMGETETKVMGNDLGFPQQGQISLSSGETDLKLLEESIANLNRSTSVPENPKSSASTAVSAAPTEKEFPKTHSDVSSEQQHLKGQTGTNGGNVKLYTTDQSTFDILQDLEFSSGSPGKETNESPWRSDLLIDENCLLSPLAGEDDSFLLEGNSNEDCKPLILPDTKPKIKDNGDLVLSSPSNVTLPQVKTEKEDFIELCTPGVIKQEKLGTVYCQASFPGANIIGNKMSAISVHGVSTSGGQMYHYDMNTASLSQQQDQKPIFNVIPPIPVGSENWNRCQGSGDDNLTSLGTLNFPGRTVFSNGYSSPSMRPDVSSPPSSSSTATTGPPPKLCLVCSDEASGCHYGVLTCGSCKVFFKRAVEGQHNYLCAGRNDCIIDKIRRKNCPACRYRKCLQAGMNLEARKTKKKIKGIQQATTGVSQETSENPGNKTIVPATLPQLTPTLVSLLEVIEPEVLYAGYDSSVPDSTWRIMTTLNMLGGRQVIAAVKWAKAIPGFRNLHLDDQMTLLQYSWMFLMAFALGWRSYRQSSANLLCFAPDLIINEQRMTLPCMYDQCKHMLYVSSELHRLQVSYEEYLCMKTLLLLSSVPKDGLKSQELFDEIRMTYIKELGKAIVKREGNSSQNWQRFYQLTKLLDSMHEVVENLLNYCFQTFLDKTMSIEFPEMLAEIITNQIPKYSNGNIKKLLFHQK
# Description: Compounds were solvated and diluted in DMSO, and transferred directly into assay plates. Fluorescent dexamethasone and a partially purified full length glucocorticoid receptor were added to the plates, together with buffer components to stabilise the GR protein and incubated at room temperature for 2 hr in the dark. Binding of each compound was assessed by analysing the displacement of fluorescent ligand by measuring the decrease in fluorescence polarisation signal from the mixture.
# GR [1] = molecular target: T2, GR (Homo sapiens, UniProt P04150); assay: GR Functional Assay - NFκB Assay (A549 SPAP cells, TNFα stimulated); format: cell-based; conditions: for Emax: agonists, read-out: average maximum asymptote in the NFkB assay
# T2 construct: endogenous in cells; host or cells: A549 (human lung carcinoma, ECACC No. 86012804), stably transfected with reporter plasmids only
# T2 sequence (P04150 1-777): T1 sequence (P04150 1-777)
# Description: Stimulation of the cell line with TNFα results in intracellular signal transduction and ultimately translocation of NFκB into the nucleus. This activates the inserted DNA sequence resulting in transcription of the integrated SPAP gene, which is quantified using a calorimetric assay. […] The stably transfected cell line was grown as a monolayer in DMEM supplemented with FCS-HI (10%), Non-essential amino acids (1%), L-Glutamine (2 mM), Pen/Strep (1%) and Geneticin (50 mg/ml).
# A 70% confluent T225 flask of A549 SPAP cells was harvested by centrifugation for 5 mins at 200 g, resuspended in assay buffer (DMEM supplemented with 10% FCS 2×HI, 2 mM L-Glutamine, 1% Pen/Strep and Non essential amino acids) and diluted to 0.16×10^6/ml. 60 μl of cell solution was dispensed to each well of clear Nunc 384-well plates, containing compound at the required concentration. […] Plates were equilibrated to room temperature for 1 hr prior to the addition of 25 μl of pNPP buffer (1M Diethanolamine pH 9.8, 0.5 mM MgCl2, 0.28M NaCl, 2 mg/ml pNPP) to each well of assay plates.
# Progesterone Receptor = molecular target: T3, Progesterone Receptor (Homo sapiens, UniProt P06401); assay: Assay for Progesterone Receptor Agonist Activity (CV-1 cells, PRb-BacMam, MMTV-BacMam); format: cell-based; conditions: at least once in this assay, read-out: progesterone receptor agonist pEC50 (converted)
# T3 construct: expressed in transfected cells; host or cells: CV-1 cells transduced with PRb-BacMam and MMTV-BacMam
# T3 sequence (P06401 1-933): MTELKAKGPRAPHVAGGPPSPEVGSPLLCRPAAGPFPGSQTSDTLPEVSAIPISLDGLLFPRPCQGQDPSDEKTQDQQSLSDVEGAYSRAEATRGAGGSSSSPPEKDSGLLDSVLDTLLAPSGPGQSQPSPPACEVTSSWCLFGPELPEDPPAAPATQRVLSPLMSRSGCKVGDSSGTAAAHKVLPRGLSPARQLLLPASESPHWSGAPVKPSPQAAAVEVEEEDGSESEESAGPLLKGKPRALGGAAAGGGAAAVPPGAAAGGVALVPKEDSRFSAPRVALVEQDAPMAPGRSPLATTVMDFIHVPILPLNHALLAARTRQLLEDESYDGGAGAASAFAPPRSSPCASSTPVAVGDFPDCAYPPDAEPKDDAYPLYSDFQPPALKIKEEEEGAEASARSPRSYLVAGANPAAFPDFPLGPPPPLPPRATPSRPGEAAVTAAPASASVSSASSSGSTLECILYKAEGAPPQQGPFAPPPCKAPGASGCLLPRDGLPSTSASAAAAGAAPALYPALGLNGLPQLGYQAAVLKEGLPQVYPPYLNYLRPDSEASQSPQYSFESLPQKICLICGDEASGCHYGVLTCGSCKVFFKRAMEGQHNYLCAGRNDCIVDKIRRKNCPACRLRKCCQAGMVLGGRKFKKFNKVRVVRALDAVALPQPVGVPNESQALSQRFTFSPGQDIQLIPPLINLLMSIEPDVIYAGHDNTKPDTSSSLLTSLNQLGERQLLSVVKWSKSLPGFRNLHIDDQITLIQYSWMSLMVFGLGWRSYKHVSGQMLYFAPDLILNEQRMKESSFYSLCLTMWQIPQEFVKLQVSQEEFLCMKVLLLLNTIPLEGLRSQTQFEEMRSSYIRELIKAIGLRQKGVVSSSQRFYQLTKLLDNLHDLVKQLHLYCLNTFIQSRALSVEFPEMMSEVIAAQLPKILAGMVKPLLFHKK
# Description: A T225 flask of CV-1 cells at a density of 80% confluency was washed with PBS, detached from the flask using 0.25% trypsin and counted using a Sysmex KX-21N. Cells were diluted in DMEM containing 10% Hyclone, 2 mM […] and 1% Pen/Strep at 140 cells/μl and transduced with 10% PRb-BacMam and 10% MMTV-BacMam. […] of suspension cells were dispensed to each well of white Nunc 384-well plates, containing compounds at the required concentration. After 24 hr 10 μl of Steadylite were added to each well of the plates. Plates were incubated in the dark for 10 min before reading them on a Viewlux reader. Dose response curves were constructed from which pEC50 values were estimated.
# GR [2] = molecular target: T2, GR; assay: GR Agonist Assay - MMTV Assay (A549 MMTV cells, renilla luciferase reporter); format: cell-based; conditions: 6 h, agonists, read-out: average maximum asymptote in the MMTV agonist assay
# Description: Stimulation of the cell line with GR agonists results in intracellular signal transduction and ultimately translocation of GR into the nucleus. This activates the inserted DNA sequence resulting in transcription of the integrated luciferase gene, which is quantified using a light emission. The stably transfected cell line was grown as a monolayer in DMEM supplemented with FCS-HI (10%), Non-essential amino acids (1%), L-Glutamine (2 mM), Pen/Strep (1%) and Geneticin (50 mg/ml).
# A 90% confluent T175 flask of A549 MMTV cells was harvested by centrifugation for 5 min at 200 g, resuspended in assay buffer (DMEM supplemented with 10% FCS 2×HI, 2 mM Glutamax, Non essential amino acids and 25 mM HEPES) and diluted to 0.1×10^6/ml. 70 μl of cell solution was dispensed to each well of white Nunc 384-well plates, containing compound at the required concentration. […] The plates were covered to protect the reagents from light, and then incubated at room temperature for approximately 15 mins before reading them on a Viewlux.
# [3] = at least once in the NFkB assay, A549 SPAP cells, read-out: pIC50 in the NFkB assay (converted)
# [4] = at least once, examples listed as agonists in NFkB and MMTV assays, read-out: potency pIC50 in the NFKB assay (converted)
Structure (SMILES),IC50 (glucocorticoid receptor),IC50 (GR [1]; [3]),EC50 (Progesterone Receptor),Emax (GR [1]; A549 SPAP cells),IC50 (GR [1]; [4]),Emax (GR [2])
"Nc1c(C(=O)NCC(O)(CN(CCF)C(=O)c2ccccc2)C(F)(F)F)cnn1-c1ccc(F)cc1 (single isomer, unassigned) [Example 1 Enantiomer 1, 5-Amino-1-(4-fluorophenyl)-N-(3,3,3-trifluoro-2-{[(2-fluoroethyl)(phenylcarbonyl)amino]methyl}-2-hydroxypropyl)-1H-pyrazole-4-carboxamide]",< 1000 nM,< 1000 nM,> 1000 nM,,,
"CCN(CC(O)(CNC(=O)c1cnn(-c2ccc(F)cc2)c1N)C(F)(F)F)C(=O)c1ccccc1C(F)(F)F (racemic) [Example 9 (racemic), 5-amino-N-{2-[(ethyl{[2-(trifluoromethyl)phenyl]carbonyl}amino)methyl]-3,3,3-trifluoro-2-hydroxypropyl}-1-(4-fluorophenyl)-1H-pyrazole-4-carboxamide]",< 1000 nM,< 1000 nM,> 1000 nM,≥ 40%,< 316 nM,≥ 40%
"CN(CC(O)(CNC(=O)c1cnn(-c2ccc(F)cc2)c1N)C(F)(F)F)C(=O)c1ccccc1F (racemic) [Example 6 (racemic), 5-amino-1-(4-fluorophenyl)-N-(3,3,3-trifluoro-2-{[[(2-fluorophenyl)car-bonyl](methyl)amino]methyl}-2-hydroxypropyl)-1H-pyrazole-4-carboxamide]",< 1000 nM,< 1000 nM,> 1000 nM,≥ 40%,< 316 nM,≥ 40%
"CCN(CC(O)(CNC(=O)c1cnn(-c2ccc(F)cc2)c1N)C(F)(F)F)C(=O)c1ncccc1Cl (racemic) [Example 3 (racemic), N-[2-[({[5-Amino-1-(4-fluorophenyl)-1H-pyrazol-4-yl]carbonyl]amino)methyl]-3,3,3-trifluoro-2-hydroxypropyl}-3-chloro-N-ethyl-2-Pyridinecarboxamide]",,,> 1000 nM,,,
"CCN(CC(O)(CNC(=O)c1cnn(-c2ccc(F)cc2)c1N)C(F)(F)F)C(=O)c1ccccc1 (single isomer, unassigned) [Example 14 Enantiomer 1, 5-amino-N-(2-{[ethyl(phenylcar-bonyl)amino]methyl}-3,3,3-trifluoro-2-hydroxypropyl)-1-(4-fluorophenyl)-1H-pyrazole-4-carboxamide]",< 1000 nM,,> 1000 nM,,,
"CCN(CC(O)(CNC(=O)c1cnn(-c2ccc(F)cc2)c1N)C(F)(F)F)C(=O)c1cccc2cccnc12 (racemic) [Example 8 (racemic), N-{2-[({[5-amino-1-(4-fluorophenyl)-1H-pyrazol-4-yl]carbonyl}amino)methyl]-3,3,3-trifluoro-2-hydroxypropyl}-N-ethyl-8-quinolinecarboxamide]",,< 1000 nM,> 1000 nM,≥ 40%,< 316 nM,≥ 40%

# The next lines start with the values.
IC50 (glucocorticoid receptor),IC50 (GR [1]; [3]),EC50 (Progesterone Receptor),Emax (GR [1]; A549 SPAP cells),IC50 (GR [1]; [4]),Emax (GR [2]),Structure (SMILES)
< 1000 nM,< 1000 nM,> 1000 nM,≥ 40%,< 316 nM,≥ 40%,"CN(CC(O)(CNC(=O)c1cnn(-c2ccc(F)cc2)c1N)C(F)(F)F)C(=O)c1ccccc1Cl (single isomer, unassigned) [Example 7 Enantiomer 1, 5-amino-N-(2-{[[(2-chlorophenyl)car-bonyl](methyl)amino]methyl}-3,3,3-trifluoro-2-hydroxypropyl)-1-(4-fluorophenyl)-1H-pyrazole-4-carboxamide]"
,,> 1000 nM,,,,"CCN(CC(O)(CNC(=O)c1cnn(-c2ccc(F)cc2)c1N)C(F)(F)F)C(=O)c1ccccc1Cl (racemic) [Example 16 (racemic), 5-amino-N-(2-{[[(2-chlorophenyl)car-bonyl](ethyl)amino]methyl}-3,3,3-trifluoro-2-hydroxypropyl)-1-(4-fluorophenyl)-1H-pyrazole-4-carboxamide]"
,< 1000 nM,> 1000 nM,,,,"CCN(CC(O)(CNC(=O)c1cnn(-c2ccc(F)cc2)c1N)C(F)(F)F)C(=O)c1ccccc1F (single isomer, unassigned) [Example 4 Enantiomer 1, 5-Amino-N-[2-({ethyl[(2-fluorophenyl)carbonyl]amino}methyl)-3,3,3-trifluoro-2-hydroxypropyl]-1-(4-fluorophenyl)-1H-pyrazole-4-carboxamide]"
,,> 1000 nM,,,,"CCN(CC(O)(CNC(=O)c1cnn(-c2ccc(F)cc2)c1N)C(F)(F)F)C(=O)c1ccccc1Cl (single isomer, unassigned) [Example 16 Enantiomer 1, 5-amino-N-(2-{[[(2-chlorophenyl)car-bonyl](ethyl)amino]methyl}-3,3,3-trifluoro-2-hydroxypropyl)-1-(4-fluorophenyl)-1H-pyrazole-4-carboxamide]"
